Laboratory results taken from paper PMC2212779 (The Journal of Experimental Medicine, 2005).
Ends that are not written are not given here.

target: H-2D^b (Mus musculus, UniProt P01899); assay: not given; conditions: read-out: average IC50 of the radiolabeled standard peptide; cited from earlier work
Sequence (P01899 25-362): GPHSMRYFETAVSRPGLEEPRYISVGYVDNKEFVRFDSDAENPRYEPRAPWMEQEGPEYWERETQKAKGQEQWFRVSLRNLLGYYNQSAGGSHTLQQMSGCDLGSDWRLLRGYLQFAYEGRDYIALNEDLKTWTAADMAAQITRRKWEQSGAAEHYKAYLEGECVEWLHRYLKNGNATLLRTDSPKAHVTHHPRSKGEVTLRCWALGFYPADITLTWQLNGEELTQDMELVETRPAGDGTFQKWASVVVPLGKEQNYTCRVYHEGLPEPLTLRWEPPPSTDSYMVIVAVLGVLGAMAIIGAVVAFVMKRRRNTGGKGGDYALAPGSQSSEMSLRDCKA
Sequence (P61769 21-119, further chain): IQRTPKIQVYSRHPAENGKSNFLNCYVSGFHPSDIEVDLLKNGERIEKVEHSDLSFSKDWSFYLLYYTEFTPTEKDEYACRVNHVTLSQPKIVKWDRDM

Sequence	IC50 [nM]
SGPSNTYPEI	4.4

target: H-2K^b (Mus musculus, UniProt P01901); assay: biochemical; assay type: binding; conditions: not given
Sequence (P01901 22-369): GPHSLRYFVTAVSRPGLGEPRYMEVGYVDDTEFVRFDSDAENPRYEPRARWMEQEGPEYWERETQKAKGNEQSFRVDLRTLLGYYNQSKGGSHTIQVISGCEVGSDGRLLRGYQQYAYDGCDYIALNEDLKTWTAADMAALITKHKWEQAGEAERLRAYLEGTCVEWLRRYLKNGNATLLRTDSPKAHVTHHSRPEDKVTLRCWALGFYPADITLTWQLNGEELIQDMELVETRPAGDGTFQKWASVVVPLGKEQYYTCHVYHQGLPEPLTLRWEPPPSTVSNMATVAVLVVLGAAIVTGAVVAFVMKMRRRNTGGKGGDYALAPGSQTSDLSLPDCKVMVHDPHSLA
Sequence (P61769 21-119, further chain): as the sequence (P61769 21-119, further chain) above

Sequence	IC50 [nM]
TSYKFESV [B8R20-27]	0.19
WQTMYTNV [WQTMYTNV]	6.6
KVEEYCTGL [KVEEYCTGL]	129
ISLKNYGI [ISLKNYGI]	16
LAVLFINSI [LAVLFINSI]	28
